Measured values reported in patent US7994291B2, “Human E3α ubiquitin ligase family” (Amgen Inc., priority 2000, dated 2011).
“Also recorded” adds a separate entry of the source.

Key:
[1] = test system: differentiated C2C12 cells; test: 125I-ubiquitin conjugation of cellular proteins in cytokine-treated differentiated C2C12 myotubes; format: cell-based, murine
Experimental: To further substantiate the enzymatic activity of huE3αI and huE3αII, ubiquitin conjugation to endogenous cellular proteins were measured in cultured muscle cell lines. Cultures of murine C2C12 or rat L6 myotube cells (ATCC accession nos. CRL-1772 and CRL-1458, respectively) were transfected with huE3αI or huE3αII full length cDNA under control of the CMV promoter using Lipofectamine 2000 Reagent (Gibco). Mock transfection with the pcDNA3.1 vector without a cDNA insert was performed as a control. Cell lysates were prepared as described above for the 293T cells and the resulting supernatants were used in ubiquitin conjugation reactions. For each reaction, 30 μg of C2C12or L6 myotube cell lysate was incubated with ^125I-ubiquitin (0.15 mg/ml, approximately ×10^7 cpm) in a total volume of 25-30 μl in a buffer containing 50 mM Tris, pH 8.0, 2 mM DTT, 5 mM MgCl2, 2 mM adenosine 5′-[-thio]triphosphate (ATP S), 50 μg/ml ubiquitin aldehyde, 20 μg/ml MG132 and protease inhibitor cocktail (Sigma P8340) at 37° C. for 30 minutes. Reactions were stopped by adding sample buffer and were subjected to 12% SDS PAGE. The gels were then dried and autoradiographed.
C2C12 cells were differentiated for 5 days to allow formation of myotubes. The differentiated myotubes were treated with 2 ng/ml of IL-6 for 5, 24 or 48 hours. […]

muE3αII = test: Northern blot of muE3αII mRNA in cytokine-treated C2C12 myotubes; format: cell-based, mouse; settings: 10 ng/ml cytokine for 3 days and 5 days, differentiated C2C12 myotubes vs untreated
Experimental: Treatment with the proinflammatory cytokines, TNFα and IL-6, caused the induction of […] in C2C12 myotube cultures. C2C12 myoblasts were cultured in 100-mm dishes in an atmosphere of 5% CO2 at 37° C. in DMEM supplemented with 10% FBS and L-glutamine to reach 100% confluence. Myoblast differentiation was induced with DMEM supplemented with 2% horse serum and L-glutamine for 96 hours. Differentiated myotubes were then treated with TNFα (10 ng/ml; R&D Systems cat no. 210-TA) or IL-6 (10 ng/ml; R&D Systems cat no. 206-IL) for 3 days and 5 days.
After the 3 or 5 day incubation, RNA from differentiated C2C12 cultures was isolated with Trizol Reagent and Northern blot analysis was carried out as described in Example 11. Isolated RNA from untreated C2C12 cultures were used as a control. The blots were hybridized with a ^32P-labeled cDNA probes specific for muE3αI (lower panels) and muE3αII (upper panels). The probes were generated as described in Example 12.

E3α = test: 125I-ubiquitin conjugation to endogenous muscle proteins in Fraction II of muscle extracts from YAH tumor-bearing rats, with E3α inhibitor; format: biochemical, rat; settings: 10 mM inhibitor, 20 μg/ml bestatin, 37° C., 20 minutes, Fraction II of gastrocnemius muscle extract
Experimental: The rate of ubiquitin conjugation of the endogenous muscle proteins were carried out as described in Example 10 using the skeletal muscles from the YAH tumor-bearing rats. The frozen gastrocnemius muscles collected (via dissection at sacrifice) from 6 tumor-bearing rats were combined. The muscle extracts (20% weight/volume) were prepared by homogenizing the muscles in a buffer containing 50 mM Tris HCl (pH 8.00), 5 mM MgCl2, 2 mM DTT, protease inhibitor cocktail (Sigma P8340) and 10% glycerol. The homogenates were then centrifuged at 40,000 g for 1 hr and the resulting supernatants were used as crude muscle extracts.
For some assays, the crude muscle extracts were fractionated further by chromatography on DEAE-cellulose (Whatman, Clifton, N.J.) to remove endogenous ubiquitin as described by Soloman et al. (Proc. natl. Acad. Sci. U.S.A., 95: 12602-7, 1998). The bound material Fraction II, which contained most of the ubiquitin conjugating enzymes were eluted with 50 mM Tris, pH 8.0 containing 0.5M NaCl and 1 mM DTT. Both crude extracts and Fraction II were dialyzed prior to use for ubiquitination assay against buffer containing 20 mM Tris, pH 8.0, 2 mM DTT, 5 mM MgCl2, and 10% glycerol and stored at […] until use. Crude muscle extracts were used for ubiquitin conjugation to ^125I-α-lactalbumin. […]

Row | Molecule | ubiquination of cellular proteins ([1]; 2 ng/ml IL-6 for 5, 24 or 48 hours, detectable 5 hours post-treatment, time dependent) | expression of muE3αII mRNA (muE3αII) | effect on accelerated muscle protein ubiquitination of tumor-bearing rats (E3α) | 125I-ubiquitin conjugation of cellular proteins ([1]; TNFα 0, 3, 6, 10, 20 ng/ml for one hour)
1 | IL-6: proinflammatory cytokine (R&D Systems cat no. 206-IL) | marked increase | markedly increased |  | 
2 | COC(=O)[C@@H](N)CCCNC(=N)N [arginine methylester, arginine methyl ester] |  |  | virtually abolished the accelerated ubiquitination activity; also recorded: virtually abolished all the increased ubiquitination activities | 
3 | TNFα |  | markedly increased |  | dose dependent increase
